From patent US20220168307A1, “TREATMENT OF SMA” (Hoffmann-La Roche Inc., priority 2019, published 2022)
“Also recorded” adds a separate entry of the source.

Key:
CYP2D6 [1] = biological target: T1, CYP2D6 (Homo sapiens, UniProt P10635); assay: in vitro; conditions: pooled human liver microsomes, pH 7.4, probe dextromethorphan, % Control activity at, direct inhibition, substrate Dextromethorphan, concentration not given, duplicates
CYP2C9 [2] = biological target: T2, CYP2C9 (Homo sapiens, UniProt P11712); assay: Time-dependent inhibition (IC50 shift) of CYP2C9 in human liver microsomes; format: in vitro ADME; conditions: risdiplam up to 12.5 μM
T2 sequence (P11712 whole entry): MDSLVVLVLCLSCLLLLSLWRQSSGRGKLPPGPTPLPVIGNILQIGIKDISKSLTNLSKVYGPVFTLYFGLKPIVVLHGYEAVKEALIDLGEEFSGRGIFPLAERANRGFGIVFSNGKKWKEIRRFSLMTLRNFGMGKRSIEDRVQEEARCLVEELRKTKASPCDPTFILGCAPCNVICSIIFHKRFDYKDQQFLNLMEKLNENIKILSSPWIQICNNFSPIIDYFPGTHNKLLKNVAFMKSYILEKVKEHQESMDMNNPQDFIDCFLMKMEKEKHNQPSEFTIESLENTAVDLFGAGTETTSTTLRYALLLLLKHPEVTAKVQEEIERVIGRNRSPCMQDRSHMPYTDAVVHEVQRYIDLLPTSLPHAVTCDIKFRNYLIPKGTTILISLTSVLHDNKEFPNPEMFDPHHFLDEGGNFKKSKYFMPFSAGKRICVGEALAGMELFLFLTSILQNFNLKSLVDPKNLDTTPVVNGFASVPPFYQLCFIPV
Procedure: (§1) Donors CMV negative for serology are unm
(§2) All incubations were conducted in duplicate.
(§3) % remaining=(C+I/C^−I)*100

CYP2C9 [3] = biological target: T2, CYP2C9; assay: biochemical
CYP2C8 [4] = biological target: T3, CYP2C8 (Homo sapiens, UniProt P10632); assay: in vitro; conditions: pooled human liver microsomes, pH 7.4, probe amodiaquine
T3 sequence (P10632 1-490): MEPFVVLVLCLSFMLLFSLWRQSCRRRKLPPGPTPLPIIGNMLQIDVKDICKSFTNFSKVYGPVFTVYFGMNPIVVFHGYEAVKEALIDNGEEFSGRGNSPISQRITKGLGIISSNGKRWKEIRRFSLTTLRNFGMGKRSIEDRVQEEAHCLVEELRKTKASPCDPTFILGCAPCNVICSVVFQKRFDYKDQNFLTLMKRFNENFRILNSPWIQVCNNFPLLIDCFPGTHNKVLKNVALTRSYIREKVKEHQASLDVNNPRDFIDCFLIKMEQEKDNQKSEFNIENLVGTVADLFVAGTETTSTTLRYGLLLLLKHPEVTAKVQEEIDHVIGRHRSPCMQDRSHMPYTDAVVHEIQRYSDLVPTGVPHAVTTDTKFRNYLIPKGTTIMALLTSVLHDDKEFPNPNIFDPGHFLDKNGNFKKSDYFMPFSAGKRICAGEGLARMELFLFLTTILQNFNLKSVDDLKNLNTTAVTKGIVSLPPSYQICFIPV

CYP3A4 = CYP3A4 (Homo sapiens, UniProt P08684); assay: Direct inhibition of CYP3A4 (midazolam and testosterone) in human liver microsomes; format: in vitro ADME; conditions: human, microsomes
CYP3A4, sequence (P08684 2-503): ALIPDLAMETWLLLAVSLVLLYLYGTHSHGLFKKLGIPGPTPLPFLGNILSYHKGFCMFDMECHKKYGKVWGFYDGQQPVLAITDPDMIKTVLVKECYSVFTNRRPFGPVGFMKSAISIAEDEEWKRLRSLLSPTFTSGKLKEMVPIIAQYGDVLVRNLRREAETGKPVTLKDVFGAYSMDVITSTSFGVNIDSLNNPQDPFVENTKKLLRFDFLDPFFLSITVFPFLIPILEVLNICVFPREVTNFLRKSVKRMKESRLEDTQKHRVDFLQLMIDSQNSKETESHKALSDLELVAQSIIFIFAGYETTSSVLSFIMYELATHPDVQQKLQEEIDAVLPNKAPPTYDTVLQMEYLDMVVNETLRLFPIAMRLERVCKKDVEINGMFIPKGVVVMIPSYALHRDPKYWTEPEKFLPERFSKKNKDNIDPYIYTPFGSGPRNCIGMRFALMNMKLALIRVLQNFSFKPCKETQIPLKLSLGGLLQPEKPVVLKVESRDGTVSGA

CYP2D6 [5] = biological target: T1, CYP2D6; assay: biochemical
CYP1A2 [6] = biological target: T4, CYP1A2 (Homo sapiens, UniProt P05177); assay: Time-dependent inhibition (IC50 shift) of CYP1A2 in human liver microsomes; format: in vitro ADME; conditions: risdiplam up to 12.5 μM
T4 sequence (P05177 1-516): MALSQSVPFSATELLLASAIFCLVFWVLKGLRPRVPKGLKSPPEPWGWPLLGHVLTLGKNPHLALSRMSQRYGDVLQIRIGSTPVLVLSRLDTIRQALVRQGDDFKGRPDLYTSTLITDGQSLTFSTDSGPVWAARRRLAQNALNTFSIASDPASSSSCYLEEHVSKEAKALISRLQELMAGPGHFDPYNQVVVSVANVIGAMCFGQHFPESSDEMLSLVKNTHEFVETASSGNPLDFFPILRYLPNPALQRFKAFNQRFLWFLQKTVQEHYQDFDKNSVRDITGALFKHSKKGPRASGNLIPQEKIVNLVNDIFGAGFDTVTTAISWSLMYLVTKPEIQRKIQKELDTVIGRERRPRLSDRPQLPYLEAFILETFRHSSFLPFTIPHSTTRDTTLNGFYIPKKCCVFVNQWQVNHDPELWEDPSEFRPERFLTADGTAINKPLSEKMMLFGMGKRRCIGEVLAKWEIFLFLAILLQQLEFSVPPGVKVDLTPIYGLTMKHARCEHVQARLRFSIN
Procedure: as §1, §2, §3

CYP1A2 [7] = biological target: T4, CYP1A2; assay: in vitro; conditions: pooled human liver microsomes, pH 7.4, probe phenacetin
CYP2C8 [8] = biological target: T3, CYP2C8; assay: Time-dependent inhibition (IC50 shift) of CYP2C8 in human liver microsomes; conditions: risdiplam up to 12.5 μM
Procedure: as §1, §2, §3

CYP2C8 [9] = biological target: T3, CYP2C8; assay: biochemical
CYP2C19 = CYP2C19 (Homo sapiens, UniProt P33261); assay: biochemical
CYP2C19, sequence (P33261 whole entry): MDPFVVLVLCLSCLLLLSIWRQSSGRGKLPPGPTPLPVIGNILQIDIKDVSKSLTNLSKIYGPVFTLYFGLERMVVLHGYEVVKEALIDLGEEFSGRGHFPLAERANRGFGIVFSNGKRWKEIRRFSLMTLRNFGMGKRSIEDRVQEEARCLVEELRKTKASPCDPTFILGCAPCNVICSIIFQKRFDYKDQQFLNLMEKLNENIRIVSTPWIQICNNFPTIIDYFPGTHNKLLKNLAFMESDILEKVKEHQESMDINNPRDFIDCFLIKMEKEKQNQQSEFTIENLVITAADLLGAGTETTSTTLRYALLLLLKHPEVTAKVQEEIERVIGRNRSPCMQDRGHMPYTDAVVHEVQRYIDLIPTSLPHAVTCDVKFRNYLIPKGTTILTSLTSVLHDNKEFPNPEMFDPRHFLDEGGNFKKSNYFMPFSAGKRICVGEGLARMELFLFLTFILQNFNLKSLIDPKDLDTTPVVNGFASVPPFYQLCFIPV

CYP2B6 = biological target: T5, CYP2B6 (Homo sapiens, UniProt P20813); assay: in vitro; conditions: pooled human liver microsomes, pH 7.4, probe bupropion
T5 sequence (P20813 1-491): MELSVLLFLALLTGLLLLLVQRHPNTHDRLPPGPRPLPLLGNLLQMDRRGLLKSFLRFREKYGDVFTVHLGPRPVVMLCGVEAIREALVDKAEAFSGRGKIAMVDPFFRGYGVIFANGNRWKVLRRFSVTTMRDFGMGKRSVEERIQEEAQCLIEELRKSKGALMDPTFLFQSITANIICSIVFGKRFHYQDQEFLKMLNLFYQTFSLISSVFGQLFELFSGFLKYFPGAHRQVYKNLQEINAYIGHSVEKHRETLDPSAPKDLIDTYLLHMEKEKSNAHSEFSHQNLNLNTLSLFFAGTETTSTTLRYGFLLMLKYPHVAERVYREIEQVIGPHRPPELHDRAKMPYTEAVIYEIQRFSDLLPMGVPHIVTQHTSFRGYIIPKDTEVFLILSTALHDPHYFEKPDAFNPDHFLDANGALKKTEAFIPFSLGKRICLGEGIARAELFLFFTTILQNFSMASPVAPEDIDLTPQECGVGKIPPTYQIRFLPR

[10] = Risdiplam treatment of patients with SMA: safety and exposure; format: in vivo, human

T1 sequence (P10635 whole entry): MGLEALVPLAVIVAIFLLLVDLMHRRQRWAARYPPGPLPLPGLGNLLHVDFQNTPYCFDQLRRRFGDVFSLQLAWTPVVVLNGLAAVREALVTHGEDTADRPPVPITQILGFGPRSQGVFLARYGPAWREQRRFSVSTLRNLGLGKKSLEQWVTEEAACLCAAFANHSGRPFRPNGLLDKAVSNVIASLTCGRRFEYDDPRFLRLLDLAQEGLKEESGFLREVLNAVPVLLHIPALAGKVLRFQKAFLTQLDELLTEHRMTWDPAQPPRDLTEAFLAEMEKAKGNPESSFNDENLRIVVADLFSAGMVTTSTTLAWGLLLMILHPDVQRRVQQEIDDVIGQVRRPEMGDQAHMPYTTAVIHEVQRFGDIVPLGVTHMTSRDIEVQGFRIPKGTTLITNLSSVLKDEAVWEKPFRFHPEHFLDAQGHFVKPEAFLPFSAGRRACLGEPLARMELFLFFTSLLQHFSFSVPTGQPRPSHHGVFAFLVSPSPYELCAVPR

Cc1cn2nc(-c3cc(=O)n4cc(N5CCNC6(CC6)C5)ccc4n3)cc(C)c2n1 [risdiplam, 7-(4,7-diazaspiro[2.5]octan-7-yl)-2-(2,8-dimethylimidazo[1,2-b]pyridazin-6-yl)pyrido[1,2-a]pyrimidin-4-one]
activity (CYP2D6 [1]): 97% | time-dependent inhibition (in words) (CYP2C9 [2]): did not show any significant reversible or time-dependent inhibition; also recorded: No significant reversible or time-dependent inhibition; also recorded: No significant time-dependent inhibition; also recorded: low potential to cause direct or time-dependent inhibition | IC50 (CYP2C9 [3]): > 12.5 µM | activity (CYP2C8 [4]): 93% | IC50 (CYP3A4; pH 7.4, IC50, direct inhibition, substrate Midazolam): > 12.5 µM | IC50 (CYP3A4; pH 7.4, IC50, direct inhibition, substrate Testosterone): 11 µM | IC50 (CYP3A4; pH 7.4, IC50, direct, CYP3A4-Midazolam Activity): < 12.5 µM | IC50 (CYP2D6 [5]): > 12.5 µM | time-dependent inhibition (in words) (CYP1A2 [6]): did not show any significant reversible or time-dependent inhibition; also recorded: No significant reversible or time-dependent inhibition; also recorded: No significant time-dependent inhibition; also recorded: low potential to cause direct or time-dependent inhibition | activity (CYP1A2 [7]): 94% | time-dependent inhibition (in words) (CYP2C8 [8]): did not show any significant reversible or time-dependent inhibition; also recorded: No significant reversible or time-dependent inhibition; also recorded: No significant time-dependent inhibition; also recorded: low potential to cause direct or time-dependent inhibition | IC50 (CYP2C8 [9]): > 12.5 µM | IC50 (CYP2C19): > 12.5 µM | activity (CYP2B6): 88% | safety and tolerability (in words) ([10]; 5 mg risdiplam, more than 1 year of treatment, patients with SMA): safe and well tolerated | AUC ([10]; human, in vivo, SMA patients, steady state, read-out: mean AUCtau at steady state (therapeutic exposure observed in SMA patients)): 2000 ng·h/mL
